According to patent EP3851097A1, “CONTROLLED RELEASE FORMULATIONS” (Universidad De Zaragoza, priority 2020, dated 2021):

Assay: Ocular tissue pharmacokinetics of dexamethasone after intravitreal injection (HPLC)
Conditions: vitreous humor
Method: Previously, a paracentesis in the anterior chamber was performed using a 30-gauge hypodermic needle with removal of aqueous humor, to avoid an intraocular pressure elevation.
Thirty female NZ albino rabbits were used for this study: fifteen for SCS group (50 µL-DEX/LAP suspension) and other fifteen for IVT group (100 µL).
After administration of DEX/LAP suspension (10 mg/mL, 1:10 w/w), the rabbits were sacrificed for sampling eye tissues and subsequent ocular PK studies. Three animals were used for each sampling time point at 1, 7, 28, 84 and 168 days. A rapid intravenous injection of sodium pentobarbital (30 mg/kg) through the ear vein was performed and immediately after euthanasia, ocular tissues were collected. Following eye enucleation, the globes were snap-frozen (-40°C) and specimens were obtained by eye dissection (vitreous, lens, sclera and chorio-retina compound). DEX concentrations in ocular tissues were determined using a simple and easily accessible method by HPLC-Mss, according to the methodology described by our group in a previous study.
The determination of DEX was carried out by HPLC-Mss method in a Waters 2695 system equipped with a Phenomenex Kinetex C18 column (75 mm × 4.6 mm × 2.6 µm) coupled to a Waters 2995 PDA detector. The mobile phase was acetonitrile/water (35:65 v/v) pumped at a flow rate of 0.2 mL/min at 35°C. Detection at 250 nm was used. The amount of DEX was calculated by a seven point calibration curve against 6-α-methylprednisolone as internal standard. Aliquots of the extraction medium (200 µL) were mixed with acetonitrile (2 mL) and 100 µL of a standard solution (20 ppm in acetonitrile). The solution was then vortexed for 1 min and sonicated for 5 min to ensure the complete mixing, and finally centrifuged at 3000 rpm for 5 min. The supernatant was collected and evaporated under vacuum, and then dissolved in 200 µL of acetonitrile, filtered through a 0.22 µm PTFE syringe filter and analyzed.
PK data were analyzed for the best fit and were consequently modelled according to compartmental models using Microsoft Excel's "PKSolver Add-in" (Albuquerque, NM, USA), in which equations describing concentration as a function of time are used. The following PK parameters were obtained: peak concentration (Cmax), time to peak concentration (Tmax), elimination half-life (T½).
To describe the time course-concentration after administration the following equation was used: Ctissue = C0 ∗e^(−Ke t) [formula] where C is the tissue concentration, C0 is the concentration at time to, Ke is the elimination rate constant which is derived from the elimination half-life of the drug (Ke= 0.693/T1/2).

[1] = 100 µL intravitreal administration

SMILES: C[C@@H]1C[C@H]2[C@@H]3CCC4=CC(=O)C=C[C@]4(C)[C@@]3(F)[C@@H](O)C[C@]2(C)[C@@]1(O)C(=O)CO [DEX solution, Dexamethasone]
- AUC0-∞ [1]: 317.17 ng·days/g
- C0 [1]: 1737.71 ng/g
- Cl [1]: 315.29 g/day
- Ke [1]: 5.48 day⁻¹
- clearance (CL) (intravitreal injection): 315.29 g/day
